For assay [1], the target named is T1, WRN [UniPro: Q14191 (WRN_HUMAN), N500-C946] (Homo sapiens (Human), UniProt Q14191). Put plainly: WRN unwinding assay (FORKF DNA, fluorescence). Type of assay: biochemical. The conditions noted are these: Table 14.
For assay [2], the target named is T1, WRN [UniPro: Q14191 (WRN_HUMAN), N500-C946]. The assay is described as follows: WRN ATPase assay (ADP-Glo). Type of assay: biochemical. The conditions noted are these: WRN enzymatic activity assay. (In general: ADP-Glo first removes unused ATP, then detects ADP through luciferase.)

T1 sequence (Q14191 500-946): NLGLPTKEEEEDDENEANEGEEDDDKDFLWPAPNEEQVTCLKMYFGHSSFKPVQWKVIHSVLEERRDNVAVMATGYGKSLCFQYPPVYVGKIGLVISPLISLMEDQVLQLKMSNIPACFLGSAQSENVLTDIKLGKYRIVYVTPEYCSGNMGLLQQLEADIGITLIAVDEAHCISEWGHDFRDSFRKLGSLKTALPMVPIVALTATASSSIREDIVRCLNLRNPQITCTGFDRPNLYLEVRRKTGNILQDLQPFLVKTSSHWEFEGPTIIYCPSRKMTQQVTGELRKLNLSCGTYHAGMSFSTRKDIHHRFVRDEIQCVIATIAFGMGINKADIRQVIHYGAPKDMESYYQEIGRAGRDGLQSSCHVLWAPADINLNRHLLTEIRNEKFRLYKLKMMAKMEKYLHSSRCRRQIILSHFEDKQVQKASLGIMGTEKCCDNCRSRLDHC

As for `CCc1c(N2CCN(C(=O)C(=O)N(C)C)CC2)c(=O)n2nc(C3=CCOCC3)nc2n1CC(=O)Nc1ccc(C(F)(F)F)cc1Cl` [Example 326, 2-(4-(4-(2-((2-Chloro-4-(trifluoromethyl)phenyl)amino)-2-oxoethyl)-2-(3,6-dihydro-2H-pyran-4-yl)-5-ethyl-7-oxo-4,7-dihydro-[1,2,4]triazolo[1,5-a]pyrimidin-6-yl)piperazin-1-yl)-N,N-dimethyl-2-oxoacetamide], the values for the IC50 in assay [1] and in assay [2] were below 100 nM and 100 to 1000 nM, respectively.
Regarding `CCc1c(N2CCN(C(=O)CNC(=O)c3ccno3)CC2)c(=O)n2nc(C3=CCOCC3)nc2n1CC(=O)Nc1ccc(C(F)(F)F)cc1F` [Example 220, N-(2-(4-(2-(3,6-Dihydro-2H-pyran-4-yl)-5-ethyl-4-(2-((2-fluoro-4-(trifluoromethyl)phenyl)amino)-2-oxoethyl)-7-oxo-4,7-dihydro-[1,2,4]triazolo[1,5-a]pyrimidin-6-yl)piperazin-1-yl)-2-oxoethyl)isoxazole-5-carboxamide], the IC50 in assay [1] and in assay [2] was below 100 nM in each case.
On to `CCc1c(N2CCN(C(=O)CNS(C)(=O)=O)CC2)c(=O)n2nc(C3=CCOCC3)nc2n1CC(=O)Nc1ccc(C(F)(F)F)cc1Cl` [Example 170, N-(2-Chloro-4-(trifluoromethyl)phenyl)-2-(2-(3,6-dihydro-2H-pyran-4-yl)-5-ethyl-6-(4-((methylsulfonyl)glycyl)piperazin-1-yl)-7-oxo-[1,2,4]triazolo[1,5-a]pyrimidin-4(7H)-yl)acetamide], for which the IC50 in assay [1] and in assay [2] was 100 to 1000 nM throughout.
Regarding `CCc1c(N2CCN(C(=O)CNS(=O)(=O)c3ccccc3)CC2)c(=O)n2nc(C3=CCOCC3)nc2n1CC(=O)Nc1ccc(C(F)(F)F)cc1Cl` [Example 171, N-(2-Chloro-4-(trifluoromethyl)phenyl)-2-(2-(3,6-dihydro-2H-pyran-4-yl)-5-ethyl-7-oxo-6-(4-(2-(phenylsulfonamido)acetyl)piperazin-1-yl)-[1,2,4]triazolo[1,5-a]pyrimidin-4(7H)-yl)acetamide], the IC50 in assay [1] and in assay [2] was 100 to 1000 nM throughout.
As for `CCc1c(N2CCN(C(=O)CNC(=O)c3cc(C)on3)CC2)c(=O)n2nc(C3=CCOCC3)nc2n1CC(=O)Nc1ccc(C(F)(F)F)cc1F` [Example 218, N-(2-(4-(2-(3,6-Dihydro-2H-pyran-4-yl)-5-ethyl-4-(2-((2-fluoro-4-(trifluoromethyl)phenyl)amino)-2-oxoethyl)-7-oxo-4,7-dihydro-[1,2,4]triazolo[1,5-a]pyrimidin-6-yl)piperazin-1-yl)-2-oxoethyl)-5-methylisoxazole-3-carboxamide], the IC50 in assay [1] and in assay [2] was below 100 nM throughout.
In the case of `CCc1c(N2CCN(C(=O)C(=O)Nc3ncco3)CC2)c(=O)n2nc(C3=CCOCC3)nc2n1CC(=O)Nc1ccc(C(F)(F)F)cc1F` [Example 228, 2-(4-(2-(3,6-Dihydro-2H-pyran-4-yl)-5-ethyl-4-(2-((2-fluoro-4-(trifluoromethyl)phenyl)amino)-2-oxoethyl)-7-oxo-4,7-dihydro-[1,2,4]triazolo[1,5-a]pyrimidin-6-yl)piperazin-1-yl)-N-(oxazol-2-yl)-2-oxoacetamide], the IC50 in assay [1] and in assay [2] was below 100 nM throughout.
Consider `CCc1c(N2CCN(S(=O)(=O)NC(=O)c3ccccc3)CC2)c(=O)n2nc(C3=CCOCC3)nc2n1CC(=O)Nc1ccc(C(F)(F)F)cc1Cl` [Example 194, N-((4-(4-(2-((2-Chloro-4-(trifluoromethyl)phenyl)amino)-2-oxoethyl)-2-(3,6-dihydro-2H-pyran-4-yl)-5-ethyl-7-oxo-4,7-dihydro-[1,2,4]triazolo[1,5-a]pyrimidin-6-yl)piperazin-1-yl)sulfonyl)benzamide], for which the IC50 in assay [1] and in assay [2] was below 100 nM each time.
As to `CCc1c(N2CCN(C(=O)C(=O)Nc3ccccc3)CC2)c(=O)n2nc(C3=CCOCC3)nc2n1CC(=O)Nc1ccc(C(F)(F)F)cc1Cl` [Example 327, 2-(4-(4-(2-((2-Chloro-4-(trifluoromethyl)phenyl)amino)-2-oxoethyl)-2-(3,6-dihydro-2H-pyran-4-yl)-5-ethyl-7-oxo-4,7-dihydro-[1,2,4]triazolo[1,5-a]pyrimidin-6-yl)piperazin-1-yl)-2-oxo-N-phenylacetamide], the IC50 in assay [1] and in assay [2] was 100 to 1000 nM in each case.
Regarding `CCc1c(N2CCN(C(=O)c3n[nH]cc(C)c3=O)CC2)c(=O)n2nc(C3=CCOCC3)nc2n1CC(=O)Nc1ccc(C(F)(F)F)cc1Cl` [Example 76, N-(2-Chloro-4-(trifluoromethyl)phenyl)-2-(2-(3,6-dihydro-2H-pyran-4-yl)-5-ethyl-6-(4-(5-methyl-4-oxo-1,4-dihydropyridazine-3-carbonyl)piperazin-1-yl)-7-oxo-[1,2,4]triazolo[1,5-a]pyrimidin-4(7H)-yl)acetamide], the IC50 (in general, the point on the concentration scale where inhibition reaches its midpoint) is below 100 nM in assay [1] and 100 to 1000 nM in assay [2].
On to `CCc1c(N2CCN(C(=O)CNC(=O)c3ncc[nH]3)CC2)c(=O)n2nc(C3=CCOCC3)nc2n1CC(=O)Nc1ccc(C(F)(F)F)cc1Cl` [Example 106, N-(2-(4-(4-(2-((2-Chloro-4-(trifluoromethyl)phenyl)amino)-2-oxoethyl)-2-(3,6-dihydro-2H-pyran-4-yl)-5-ethyl-7-oxo-4,7-dihydro-[1,2,4]triazolo[1,5-a]pyrimidin-6-yl)piperazin-1-yl)-2-oxoethyl)-1H-imidazole-2-carboxamide], for which the IC50 in assay [1] was below 100 nM; in assay [2], 100 to 1000 nM.
The matching figures for `CCc1c(N2CCN(C(=O)CNC(=O)c3cnon3)CC2)c(=O)n2nc(C3=CCOCC3)nc2n1CC(=O)Nc1ccc(C(F)(F)F)cc1Cl` [Example 384, N-(2-(4-(4-(2-((2-Chloro-4-(trifluoromethyl)phenyl)amino)-2-oxoethyl)-2-(3,6-dihydro-2H-pyran-4-yl)-5-ethyl-7-oxo-4,7-dihydro-[1,2,4]triazolo[1,5-a]pyrimidin-6-yl)piperazin-1-yl)-2-oxoethyl)-1,2,5-oxadiazole-3-carboxamide]: below 100 nM and below 100 nM.
Take `CCc1c(N2CCN(C(=O)CNC(=O)c3ncco3)CC2)c(=O)n2nc(N3CCCOCC3)nc2n1CC(=O)Nc1ccc(C(F)(F)F)cc1F` [Example 257, N-(2-(4-(5-Ethyl-4-(2-((2-fluoro-4-(trifluoromethyl)phenyl)amino)-2-oxoethyl)-2-(1,4-oxazepan-4-yl)-7-oxo-4,7-dihydro-[1,2,4]triazolo[1,5-a]pyrimidin-6-yl)piperazin-1-yl)-2-oxoethyl)oxazole-2-carboxamide]: the IC50 in assay [1] and in assay [2] was 100 to 1000 nM each time.
In the case of `CCc1c(N2CCN(C(=O)CNC(=O)N(C)C)CC2)c(=O)n2nc(C3=CCOCC3)nc2n1CC(=O)Nc1ccc(C(F)(F)F)cc1Cl` [Example 173, N-(2-Chloro-4-(trifluoromethyl)phenyl)-2-(2-(3,6-dihydro-2H-pyran-4-yl)-6-(4-((dimethylcarbamoyl)glycyl)piperazin-1-yl)-5-ethyl-7-oxo-[1,2,4]triazolo[1,5-a]pyrimidin-4(7H)-yl)acetamide], the IC50 in assay [1] and in assay [2] was 100 to 1000 nM throughout.
Take `CCc1c(N2CCN(C(=O)CNC(=O)c3ccc(F)c(F)c3)CC2)c(=O)n2nc(C3=CCOCC3)nc2n1CC(=O)Nc1ccc(C(F)(F)F)cc1Cl` [Example 132, N-(2-(4-(4-(2-((2-Chloro-4-(trifluoromethyl)phenyl)amino)-2-oxoethyl)-2-(3,6-dihydro-2H-pyran-4-yl)-5-ethyl-7-oxo-4,7-dihydro-[1,2,4]triazolo[1,5-a]pyrimidin-6-yl)piperazin-1-yl)-2-oxoethyl)-3,4-difluorobenzamide]: the half-inhibitory concentration (IC50) in assay [1] and in assay [2] was below 100 nM throughout.
Turning to `CCc1c(N2CCN(C(=O)c3cc4ccsc4[nH]c3=O)CC2)c(=O)n2nc(C3=CCOCC3)nc2n1CC(=O)Nc1ccc(C(F)(F)F)cc1Cl` [Example 71, N-(2-Chloro-4-(trifluoromethyl)phenyl)-2-(2-(3,6-dihydro-2H-pyran-4-yl)-5-ethyl-7-oxo-6-(4-(6-oxo-6,7-dihydrothieno[2,3-b]pyridine-5-carbonyl)piperazin-1-yl)-[1,2,4]triazolo[1,5-a]pyrimidin-4(7H)-yl)acetamide], the concentration for half-maximal inhibition (IC50) in assay [1] and in assay [2] was below 100 nM in each case.
For the molecule `CCc1c(N2CCN(C(=O)C(C)NC(=O)c3ccccc3)CC2)c(=O)n2nc(C3=CCOCC3)nc2n1CC(=O)Nc1ccc(C(F)(F)F)cc1Cl` (stereo not drawn) [Example 136, N-(1-(4-(4-(2-((2-Chloro-4-(trifluoromethyl)phenyl)amino)-2-oxoethyl)-2-(3,6-dihydro-2H-pyran-4-yl)-5-ethyl-7-oxo-4,7-dihydro-[1,2,4]triazolo[1,5-a]pyrimidin-6-yl)piperazin-1-yl)-1-oxopropan-2-yl)benzamide], the IC50 in assay [1] is 100 to 1000 nM; in assay [2], below 100 nM.
`CCc1c(N2CCN(c3noc4cccnc34)CC2)c(=O)n2nc(C3=CCOCC3)nc2n1CC(=O)Nc1ccc(C(F)(F)F)cc1Cl` [Example 23, N-(2-Chloro-4-(trifluoromethyl)phenyl)-2-(2-(3,6-dihydro-2H-pyran-4-yl)-5-ethyl-6-(4-(isoxazolo[4,5-b]pyridin-3-yl)piperazin-1-yl)-7-oxo-[1,2,4]triazolo[1,5-a]pyrimidin-4 (7H)-yl)acetamide]: the IC50 in assay [1] and in assay [2] was above 1000 nM in each case.
As to `CCc1c(N2CCN(C(=O)CNC(=O)c3cccc(NC(C)=O)c3)CC2)c(=O)n2nc(C3=CCOCC3)nc2n1CC(=O)Nc1ccc(C(F)(F)F)cc1Cl` [Example 278, 3-Acetamido-N-(2-(4-(4-(2-((2-chloro-4-(trifluoromethyl)phenyl)amino)-2-oxoethyl)-2-(3,6-dihydro-2H-pyran-4-yl)-5-ethyl-7-oxo-4,7-dihydro-[1,2,4]triazolo[1,5-a]pyrimidin-6-yl)piperazin-1-yl)-2-oxoethyl)benzamide], the half-inhibitory concentration (IC50) in assay [1] and in assay [2] was below 100 nM each time.

These data come from patent US20260015358A1, “BICYCLIC DERIVATIVES, COMPOSITIONS AND USES THEREOF” (Danatlas Pharmaceuticals Co., Ltd., priority 2023, published 2026).
